Data published in publication PMC5701137, “Discovery of novel choline acetyltransferase inhibitors using structure-based virtual screening” (Scientific Reports, 2017).
Several values for one entry are separate records, joined by “and”; a condition that tells them apart may be missing. Equal entries are not always repeated.

Legend:
Type in all cases: biochemical
plasma BuChE = molecular target: T1, plasma BuChE (Homo sapiens, UniProt P06276); assay: Modified Ellman's colorimetric assay for BuChE (pooled human plasma) and kinetic studies; conditions: 200 µM compound, compared to control, mean of three experiments in triplicate; for BuChE % IR (inhibition rate): 200 µM; for inhibition at 200 µM: read-out: BuChE % IR (inhibition rate)
T1 construct: 1:450 diluted solution of a pooled human plasma; from tissue; host or cells: pooled human plasma
Description: (§1) A modified version of Ellman’s colorimetric assay[16],[17] was adapted to a high throughput assay for the enzymatic activity of BuChE and AChE. The reagent, butyrylthiocholine iodide (BTC), acetylthiocholine iodide (ATC), 5,5′-dithiobis (2-nitrobenzoic acid) (DTNB) were purchased from Sigma-Aldrich (St. Louis, MO, USA). The modified assay details are as previously described[34],[35]. The main modification concerned with the high throughput adaptation of the assay for use in 384-well plates. Briefly, 25 μL/well of a 1:450 diluted solution of a pooled human plasma and 1:768 diluted (3.5 ng/ml final concentration) purified recombinant human AChE protein (Sigma, Cat no. C1682) was used for measurement of BuChE and AChE activity, respectively. In the initial in vitro screening step, the wells were pre-incubated with 25 μL/wells of different Asinex compounds for 10–30 minutes at room temperature. The concentration of the compounds working solution was 3X to give a final concentration of 200 μM in a final volume of 75 μL in each well. The stock concentration of the compounds were prepared in 100% DMSO. The stock concentration was chosen usually at 10 mM, allowing the final DMSO concentration in the wells to be less than 4%. Finally, 25 μL of a cocktail mix prepared in Na/K phosphate buffer, containing DTNB (final concentration 0.4 mM) and BTC, (final concentration 1 mM) or ATC (final concentration 0.5 mM) was added to each well and the changes in absorbance was monitored at 412 nm wavelength for 15–20 minutes with one-minute interval, using a microplate spectrophotometer reader (Infinite M1000, Tecan). The rate of the enzyme activity was determined from the linear part of the kinetic reaction curves as ∆OD/time.
(§2) For kinetic studies, a similar protocol as inhibition assay was followed; a dilution series of five different concentrations ranging from 10^−6 to 10^−9 M were prepared for each selected Asinex compounds. For ChAT, the A-CoA was kept constant at 10 μM (final) but the concentration of choline chloride varied between 320–10 μM. For BuChE, BTC was used as the substrate in the concentrations ranging from 0.0625 to 2 mM. For AChE, ATC was used as the substrate in the concentrations ranging from 0.0312 to 1 mM. Each compound concentration was measured in duplicates. The rate of enzyme activity (as ∆OD/hr kinetic data) was calculated and processed using the GraphPad Prism 7 analysis software. The inhibitory constant (Ki) values were determined from the dose-response curve and the half-maximal inhibitory concentration (IC50) values were calculated by plotting the percentage enzyme activity vs. the log of the Asinex compound concentrations and fitting the data using the nonlinear regression Enzyme Kinetics-Inhibition function.

human rChAT [1] = molecular target: T2, human rChAT (Homo sapiens, UniProt P28329); assay: In vitro ChAT activity inhibition fluorometric assay and kinetic studies; conditions: for mode of inhibition of human rChAT: Lineweaver-Burk plot and nonlinear regression fit; for Vmax of rChAT: inhibitor 0.4 µM, mean ± SEM of two experiments; for Ki / IC50: mean of two experiments; for IC50: substrate concentrations 20 to 80 µM
T2 construct: made in house; host or cells: E. coli BL21 Rosetta2
T2 sequence (P28329 1-630 isoform P28329-3): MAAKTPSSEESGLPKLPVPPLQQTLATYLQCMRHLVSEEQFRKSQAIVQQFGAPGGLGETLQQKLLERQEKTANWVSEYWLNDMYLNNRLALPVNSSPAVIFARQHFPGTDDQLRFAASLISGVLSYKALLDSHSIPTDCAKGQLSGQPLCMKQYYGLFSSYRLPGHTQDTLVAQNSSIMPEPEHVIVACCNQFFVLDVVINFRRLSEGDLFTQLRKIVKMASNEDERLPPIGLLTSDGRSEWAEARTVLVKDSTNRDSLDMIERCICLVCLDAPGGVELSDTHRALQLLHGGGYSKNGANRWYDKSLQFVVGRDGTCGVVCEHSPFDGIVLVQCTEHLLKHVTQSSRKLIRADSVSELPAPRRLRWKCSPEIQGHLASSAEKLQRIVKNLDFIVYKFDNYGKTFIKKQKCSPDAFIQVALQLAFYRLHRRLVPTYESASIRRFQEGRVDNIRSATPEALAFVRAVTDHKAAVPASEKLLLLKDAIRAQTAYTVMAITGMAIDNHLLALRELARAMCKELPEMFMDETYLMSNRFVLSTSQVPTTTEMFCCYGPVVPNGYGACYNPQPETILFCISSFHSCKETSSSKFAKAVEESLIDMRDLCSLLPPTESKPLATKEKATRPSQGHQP
Procedure: ChAT activity was measured using our newly developed fluorometric assay, using human recombinant ChAT (rChAT) protein. The reagents, choline chloride, acetyl coenzyme-A (ACoA, A2181) and 7-Diethylamino-3-(4-maleimidophenyl)-4-methylcoumarin (CPM) were purchased from Sigma-Aldrich (St. Louis, MO, USA).
The ChAT assay could be run in either 96-well or 384-well plates. For 96-well plates, 50 μL/well of 0.212 µg/ml (final concentration) of the recombinant ChAT was incubated with 100 μM different Asinex compounds (50 μL/well) for 10–30 minutes at room temperature in dilution buffer (10 mM Tris-HCl, pH 7.4, 150 mM NaCl, 1.0 mM EDTA, 0.05% (v/v) Triton X-100). Then, 50 µL of a cocktail-A [dilution buffer containing choline chloride (final concentration 150 µM), ACoA (final concentration 13.3 µM) and CPM (final concentration 15 µM)] was added to each well. Immediately after adding the cocktail-A, the changes in fluorescence was monitored kinetically at 479 nm after exciting at 390 nm at 1–2 minute intervals for 15–20 minutes using a microplate spectrophotometer reader (Infinite M1000, Tecan).
Each Asinex compounds were run in triplicates. On each 96-wells plate, several enzyme wells without inhibitor were also included during measurements as control and for estimating the inhibition level. Negative controls were wells without enzyme. The percentage inhibition for each Asinex compound was calculated based on the enzyme control value as a reference (100% activity). The compounds showing over 50% inhibition of enzyme activity were selected for further kinetic studies.
as §2
The Michaelis-Menten constant (Km) and maximal velocity (Vmax) values were calculated from substrate-velocity curve after fitting the data with non-linear regression Michaelis-Menten kinetic function. The Km and Vmax values were further used to plot the Lineweaver-Burk plots; the plots were fitted using linear regression function.

human rChAT [2] = molecular target: T2, human rChAT; assay: as above; conditions: mean ± SEM of two experiments
recombinant human AChE = molecular target: T3, recombinant human AChE (Homo sapiens, UniProt P22303); assay: Modified Ellman's colorimetric assay for AChE and kinetic studies; conditions: 200 µM compound, compared to control, mean of three experiments in triplicate; for inhibition at 200 µM: read-out: AChE % IR (inhibition rate)
T3 construct: purchased Sigma C1682
Description: as §1, §2

T3 sequence (P22303 32-614): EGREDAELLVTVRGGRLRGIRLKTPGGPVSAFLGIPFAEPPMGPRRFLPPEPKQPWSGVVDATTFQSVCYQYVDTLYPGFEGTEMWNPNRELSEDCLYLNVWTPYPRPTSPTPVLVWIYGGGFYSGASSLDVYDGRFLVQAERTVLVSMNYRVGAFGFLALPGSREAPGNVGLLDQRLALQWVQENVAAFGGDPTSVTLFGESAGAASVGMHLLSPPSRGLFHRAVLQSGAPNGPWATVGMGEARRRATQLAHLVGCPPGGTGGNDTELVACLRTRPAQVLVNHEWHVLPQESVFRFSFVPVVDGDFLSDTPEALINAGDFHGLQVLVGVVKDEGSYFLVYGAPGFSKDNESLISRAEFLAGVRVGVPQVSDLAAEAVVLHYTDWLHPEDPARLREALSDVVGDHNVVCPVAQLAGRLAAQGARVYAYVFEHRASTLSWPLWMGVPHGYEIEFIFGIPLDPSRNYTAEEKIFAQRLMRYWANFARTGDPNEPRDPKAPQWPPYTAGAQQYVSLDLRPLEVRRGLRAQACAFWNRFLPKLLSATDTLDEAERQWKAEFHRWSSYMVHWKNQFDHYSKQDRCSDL
T1 sequence (P06276 29-602): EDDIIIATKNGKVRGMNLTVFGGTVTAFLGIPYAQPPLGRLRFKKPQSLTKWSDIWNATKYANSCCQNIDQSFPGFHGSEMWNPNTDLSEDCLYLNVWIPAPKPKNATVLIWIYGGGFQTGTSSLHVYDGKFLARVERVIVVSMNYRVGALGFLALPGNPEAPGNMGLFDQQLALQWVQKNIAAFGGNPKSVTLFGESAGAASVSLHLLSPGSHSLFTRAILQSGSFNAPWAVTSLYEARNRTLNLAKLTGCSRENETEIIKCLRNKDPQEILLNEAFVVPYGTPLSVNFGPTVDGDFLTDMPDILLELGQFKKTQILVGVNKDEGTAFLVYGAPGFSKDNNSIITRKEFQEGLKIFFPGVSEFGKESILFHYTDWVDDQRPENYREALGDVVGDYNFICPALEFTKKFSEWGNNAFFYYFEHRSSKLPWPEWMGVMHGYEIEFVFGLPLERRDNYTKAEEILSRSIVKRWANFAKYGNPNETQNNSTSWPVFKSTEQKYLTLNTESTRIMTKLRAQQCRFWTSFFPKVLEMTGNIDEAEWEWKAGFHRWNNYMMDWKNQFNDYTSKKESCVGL

Compound | BuChE % IR (inhibition rate) (plasma BuChE) | inhibition at 200 µM (plasma BuChE) | inhibition at 100 µM (human rChAT [1]; 100 µM compound, compared to control, mean of three experiments in triplicate, read-out: ChAT % IR (inhibition rate)) | mode of inhibition of human rChAT (human rChAT [1]) | Vmax of rChAT (human rChAT [1]) | Ki (human rChAT [1]) | IC50 (human rChAT [1]) | Vmax of rChAT (human rChAT [2]; inhibitor 2.0 µM) | Vmax of rChAT (human rChAT [2]; inhibitor 10.0 µM) | Vmax of rChAT (human rChAT [2]; inhibitor 50.0 µM) | Vmax of rChAT (human rChAT [2]; inhibitor 250.0 µM) | AChE % IR (inhibition rate) (recombinant human AChE; 200 µM) | inhibition at 200 µM (recombinant human AChE)
CC(C)c1ccc(C(=O)CSc2n[nH]c(-c3ccco3)n2)cc1 [Compound E1] | 17.2% | 17% | > 50% | mixed-model inhibition | 276.1 ± 12.1 µM/min | ~15.2 µM and 15.2 µM | ~25.4 µM and 25.4 µM | 265.1 ± 11.7 µM/min | 243.8 ± 22.0 µM/min | 167.8 ± 10.4 µM/min | 160.3 ± 16.8 µM/min | 12.4% | 12%
CC(C)NC(=O)C1CCN(C(=O)c2csc(Nc3cccc4ccccc34)n2)CC1 [Compound B4] | 22.1% | 22% |  | mixed-model type inhibition | 239.0 ± 21.4 µM/min | 11.9 µM | ~16.5 µM and 16.5 µM | 226 ± 20.9 µM/min | 150.9 ± 13.5 µM/min | 92.1 ± 19.4 µM/min | 45.5 ± 8.5 µM/min |  | 0%
